According to US20060183902A1, “Dihydroindolyl methanones as alpha 1a/1d adrenoreceptor modulators for the treatment of benign prostatic hypertrophy and lower urinary tract symptoms” (priority 2005, published 2006):

What was measured:
α1a-AR = target: T1, α1a-AR (Homo sapiens, UniProt P35348); experiment: α1-Adrenergic receptor radio-ligand (125I-HEAT) binding assay, α1a subtype; details: COS-7 cell membranes transfected with α1a-AR, 125I-HEAT 50 pM; read-out: Receptor Binding, Ki α1a-AR
T1 construct: expressed in transfected cells; host or cells: COS-7
T1 sequence (P35348 1-466): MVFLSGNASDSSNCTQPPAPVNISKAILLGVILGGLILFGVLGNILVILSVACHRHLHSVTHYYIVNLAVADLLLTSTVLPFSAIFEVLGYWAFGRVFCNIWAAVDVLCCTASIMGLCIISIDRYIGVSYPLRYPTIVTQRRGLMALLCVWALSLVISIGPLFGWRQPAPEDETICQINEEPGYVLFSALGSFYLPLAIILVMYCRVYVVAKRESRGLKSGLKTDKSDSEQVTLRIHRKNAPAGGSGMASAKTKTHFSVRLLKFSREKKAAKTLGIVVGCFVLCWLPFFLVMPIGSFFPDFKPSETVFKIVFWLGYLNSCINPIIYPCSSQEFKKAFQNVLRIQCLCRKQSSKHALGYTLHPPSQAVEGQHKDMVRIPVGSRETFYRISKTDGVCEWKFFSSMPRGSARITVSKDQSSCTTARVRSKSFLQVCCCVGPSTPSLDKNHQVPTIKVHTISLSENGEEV
Procedure: (§1) Membranes were prepared from COS-7 cells (African Green monkey kidney SV40-transformed cells) that had been transfected with one of the three α1-AR subtypes by the following method:
(§2) COS cells from ten 100 mm tissue culture plates were scraped into a 5 mL volume of TE (a mixture of 50 mM tris(hydroxymethyl)aminomethane hydrochloride (Tris-HCl) and 5 mM ethylenediaminetetraacetic acid (EDTA) at pH 7.4). The cell suspension was disrupted with a Brinkman Polytron (at a setting of 8) for 10 sec. The disrupted cells were centrifuged at 1000×g for 10 min at 4° C. Supernatants were centrifuged at 34,500×g for 20 min at 4° C. The membrane pellets were suspended in a 2 mL volume of TNE (a mixture of 50 mM Tris-HCl, 5 mM EDTA and 150 mM NaCl at pH7.4). An aliquot of the membrane suspension was stored at −70° C. until use. The protein concentration was determined using a BioRad “DC” protein assay kit following membrane solubilization with Triton X-100.
(§3) Triplicate determinations of radio-ligand binding in the presence of increasing concentrations of testing compound were made. The reagents were added to 96-well polypropylene plate wells. Each assay well contained 140 μL TNE, 25 μL ^125I-2-(β-4-hydroxyplenyl)ethylaminomethyltetralone (^125I-HEAT) (specific activity 2200 Ci/mmol, Dupont-New England Nuclear, 50 pM final), 10 μL testing compound dissolved in dimethyl sulfoxide (DMSO) (1 pM to 10 μM in half-log increments, final), and 25 μL appropriate α1-AR membrane subtype suspension in TNE (0.5 ng/μL for the α1a and α1b subtypes and 13 ng/μL for the α1d subtype). The plate was incubated at rt for 1 hr. The contents of the wells were filtered through a glass filter (type C) (GF/C) membrane Unifilter plate (Packard Instruments) using the Packard Filtermate cell harvester. The filter plates were dried in a vacuum oven for 30 min at 40° C. 25 μL Microscint 20 liquid scintillation fluid (Packard Instuments) was added to each well. The radioactive content was analyzed in the TopCount microplate scintillation counter (Packard Instruments).
(§4) The Ki values (in nM) shown in Table 1 were determined using GraphPad Prism software.

α1b-AR = target: T2, α1b-AR (Homo sapiens, UniProt P35368); experiment: α1-Adrenergic receptor radio-ligand (125I-HEAT) binding assay, α1b subtype; details: COS-7 cell membranes transfected with α1b-AR, 125I-HEAT 50 pM; read-out: Receptor Binding, Ki α1b-AR
T2 construct: expressed in transfected cells; host or cells: COS-7
T2 sequence (P35368 1-520): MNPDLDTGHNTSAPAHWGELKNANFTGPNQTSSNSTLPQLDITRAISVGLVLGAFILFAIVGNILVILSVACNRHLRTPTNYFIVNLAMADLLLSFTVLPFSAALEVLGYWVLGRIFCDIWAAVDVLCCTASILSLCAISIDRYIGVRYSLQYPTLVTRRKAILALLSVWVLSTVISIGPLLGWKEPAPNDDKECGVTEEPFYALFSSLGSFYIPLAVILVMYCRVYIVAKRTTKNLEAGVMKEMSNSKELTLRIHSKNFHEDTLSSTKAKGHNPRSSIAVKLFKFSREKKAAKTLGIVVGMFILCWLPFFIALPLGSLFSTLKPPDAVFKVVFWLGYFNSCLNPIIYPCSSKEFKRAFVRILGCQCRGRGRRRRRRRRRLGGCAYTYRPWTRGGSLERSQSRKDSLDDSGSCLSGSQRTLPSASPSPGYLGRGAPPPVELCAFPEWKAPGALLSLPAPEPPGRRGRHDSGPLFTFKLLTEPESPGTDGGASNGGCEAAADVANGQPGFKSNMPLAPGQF
Procedure: as §1, §2, §3, §4

α1d-AR = target: T3, α1d-AR (Homo sapiens, UniProt P25100); experiment: α1-Adrenergic receptor radio-ligand (125I-HEAT) binding assay, α1d subtype; details: COS-7 cell membranes transfected with α1d-AR, 125I-HEAT 50 pM; read-out: Receptor Binding, Ki α1d-AR
T3 construct: expressed in transfected cells; host or cells: COS-7
T3 sequence (P25100 1-572): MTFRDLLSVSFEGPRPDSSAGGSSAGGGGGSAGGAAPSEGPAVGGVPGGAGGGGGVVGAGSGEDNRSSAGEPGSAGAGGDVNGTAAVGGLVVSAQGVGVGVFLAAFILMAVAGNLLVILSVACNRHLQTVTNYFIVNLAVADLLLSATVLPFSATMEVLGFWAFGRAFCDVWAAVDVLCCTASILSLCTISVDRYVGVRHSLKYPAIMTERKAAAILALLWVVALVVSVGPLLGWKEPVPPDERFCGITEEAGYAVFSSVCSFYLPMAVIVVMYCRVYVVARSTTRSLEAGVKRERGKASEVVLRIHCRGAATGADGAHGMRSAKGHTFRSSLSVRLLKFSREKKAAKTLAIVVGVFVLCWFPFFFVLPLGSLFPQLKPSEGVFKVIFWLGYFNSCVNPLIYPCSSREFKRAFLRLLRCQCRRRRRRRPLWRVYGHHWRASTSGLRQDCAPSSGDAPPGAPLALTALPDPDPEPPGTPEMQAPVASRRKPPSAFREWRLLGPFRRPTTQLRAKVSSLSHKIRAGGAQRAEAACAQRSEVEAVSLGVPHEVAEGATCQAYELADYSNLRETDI
Procedure: as §1, §2, §3, §4

Row | Structure (SMILES) | Ki (α1a-AR) [nM] | Ki (α1b-AR) [nM] | Ki (α1d-AR) [nM]
1 | COc1ccccc1C1CCN(Cc2ccc(C(=O)N3CCc4cc([N+](=O)[O-])ccc43)cc2)CC1 [Cpd 38, {4-[4-(2-methoxy-phenyl)-piperidin-1-ylmethyl]-phenyl}-(5-nitro-2,3-dihydro-indol-1-yl)-methanone] | 124 | 461 | 44.2
2 | CC(C)Oc1ccccc1N1CCN(Cc2cccc(C(=O)N3CCc4ccc(NC(N)=O)cc43)c2)CC1 [Cpd 49, (1-{3-[4-(2-isopropoxy-phenyl)-piperazin-1-ylmethyl]-benzoyl}-2,3-dihydro-1H-indol-6-yl)-urea] | 14 | 351 | 13
3 | CC(C)COc1ccccc1N1CCN(Cc2cccc(C(=O)N3CCc4ccccc43)c2)CC1 [Cpd 65, (2,3-dihydro-indol-1-yl)-{3-[4-(2-isobutoxy-phenyl)-piperazin-1-ylmethyl]-phenyl}-methanone] | 65 | 909 | 42
4 | CC(C)Oc1ccccc1N1CCN(Cc2cccc(C(=O)N3CCc4ccc(NC(=O)c5ccc(F)cc5)cc43)c2)CC1 [Cpd 48, 4-fluoro-N-(1-{3-[4-(2-isopropoxy-phenyl)-piperazin-1-ylmethyl]-benzoyl}-2,3-dihydro-1H-indol-6-yl)-benzamide] | 74 | 889 | 6
5 | CC(C)Oc1ccccc1N1CCN(Cc2cccc(C(=O)N3CCc4ccc(NC(=O)Nc5ccccc5)cc43)c2)CC1 [Cpd 22, 1-(1-{3-[4-(2-isopropoxy-phenyl)-piperazin-1-ylmethyl]-benzoyl}-2,3-dihydro-1H-indol-6-yl)-3-phenyl-urea] | 39 | 251 | 5
6 | CC(C)Oc1ccccc1N1CCN(Cc2cccc(C(=O)N3CCc4cc(F)ccc43)c2)CC1 [Cpd 68, (5-fluoro-2,3-dihydro-indol-1-yl)-{3-[4-(2-isopropoxy-phenyl)-piperazin-1-ylmethyl]-phenyl}-methanone] | 13 | 288 | 13
7 | CC(C)Oc1ccccc1N1CCN(Cc2cccc(C(=O)N3CCc4ccc(NC(=O)Nc5c(F)cccc5F)cc43)c2)CC1 [Cpd 73, 1-(2,6-difluoro-phenyl)-3-(1-{3-[4-(2-isopropoxy-phenyl)-piperazin-1-ylmethyl]-benzoyl}-2,3-dihydro-1H-indol-6-yl)-urea] | 31 | 208 | 1.5
8 | CC(C)Oc1ccccc1C1CCN(Cc2cccc(C(=O)N3CCc4ccccc43)c2)CC1 [Cpd 51, (2,3-dihydro-indol-1-yl)-{3-[4-(2-isopropoxy-phenyl)-piperidin-1-ylmethyl]-phenyl}-methanone] | 0.8 | 106 | 1.6
9 | CC(C)Oc1ccccc1N1CCN(Cc2cccc(C(=O)N3CCc4cc(-c5ccccc5)ccc43)c2)CC1 [Cpd 72, {3-[4-(2-isopropoxy-phenyl)-piperazin-1-ylmethyl]-phenyl}-(5-phenyl-2,3-dihydro-indol-1-yl)-methanone] | 15 | 154 | 46
10 | CC(C)Oc1ccccc1N1CCN(Cc2cccc(C(=O)N3CCc4cc(NS(N)(=O)=O)ccc43)c2)CC1 [Cpd 17, N-(1-{3-[4-(2-isopropoxy-phenyl)-piperazin-1-ylmethyl]-benzoyl}-2,3-dihydro-1H-indol-5-yl)-sulfamide] | 14 | 812 | 7.6
11 | CC(C)Oc1ccccc1N1CCN(Cc2cccc(C(=O)N3CCc4cc(S(=O)(=O)N(C)C)ccc43)c2)CC1 [Cpd 70, 1-{3-[4-(2-isopropoxy-phenyl)-piperazin-1-ylmethyl]-benzoyl}-2,3-dihydro-1H-indole-5-sulfonic acid dimethylamide] | 107 | 1760 | 41
12 | COc1cccc(OC)c1C(=O)Nc1ccc2c(c1)N(C(=O)c1cccc(CN3CCN(c4ccccc4OC(C)C)CC3)c1)CC2 [Cpd 28, N-(1-{3-[4-(2-isopropoxy-phenyl)-piperazin-1-ylmethyl]-benzoyl}-2,3-dihydro-1H-indol-6-yl)-2,6-dimethoxy-benzamide] | 17 | 796 | 6.8
13 | COc1ccc(C(=O)Nc2ccc3c(c2)N(C(=O)c2cccc(CN4CCN(c5ccccc5OC(C)C)CC4)c2)CC3)cc1 [Cpd 42, N-(1-{3-[4-(2-isopropoxy-phenyl)-piperazin-1-ylmethyl]-benzoyl}-2,3-dihydro-1H-indol-5-yl)-4-methoxy-benzamide] | 3.8 | 447 | 5.8
14 | CC(C)Oc1ccccc1N1CCN(Cc2cccc(C(=O)N3CCc4ccc(NCc5ccc6c(c5)OCO6)cc43)c2)CC1 [Cpd 41, {6-[(benzo[1,3]dioxol-5-ylmethyl)-amino]-2,3-dihydro-indol-1-yl}-{3-[4-(2-isopropoxy-phenyl)-piperazin-1-ylmethyl]-phenyl}-methanone] | 31 | 208 | 1.5
15 | CC(C)Oc1ccccc1N1CCN(Cc2cccc(C(=O)N3CCc4cc(NCc5ccc6c(c5)OCO6)ccc43)c2)CC1 [Cpd 27, {5-[(benzo[1,3]dioxol-5-ylmethyl)-amino]-2,3-dihydro-indol-1-yl}-{3-[4-(2-isopropoxy-phenyl)-piperazin-1-ylmethyl]-phenyl}-methanone] | 16.5 | 379 | 11
16 | COc1ccccc1C1CCN(Cc2ccc(C(=O)N3CCc4cc(N)ccc43)cc2)CC1 [Cpd 33, (5-amino-2,3-dihydro-indol-1-yl)-{4-[4-(2-methoxy-phenyl)-piperidin-1-ylmethyl]-phenyl}-methanone] | 48.8 | 658 | 49.1
17 | CCS(=O)(=O)Nc1ccc2c(c1)N(C(=O)c1cccc(CN3CCN(c4ccccc4OC(C)C)CC3)c1)CC2 [Cpd 47, ethanesulfonic acid (1-{3-[4-(2-isopropoxy-phenyl)-piperazin-1-ylmethyl]-benzoyl}-2,3-dihydro-1H-indol-6-yl)-amide] | 2.3 | 230 | 2.6
